This note sets out measurements from PubChem BioAssay (NCI).

Test systems include HCC-2998 colon; OVCAR-5 ovarian; K-562 leukemia; SF-539 CNS; HL-60(TB) leukemia; OVCAR-4 ovarian; A498 renal; SK-OV-3 ovarian; SK-MEL-2 melanoma; HOP-92 NSCLC.
Common to all, as to test: inhibition of tumour cell growth, NCI panel, 48 h

Each structure is given as a SMILES string. Several values for one entry are separate records, joined by “and”; a condition that tells them apart may be missing. Equal entries are not always repeated.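 These data come from cells grown in 96-well plates and exposed to compound for 48 hours at five concentrations. GI50 is the concentration that inhibits growth by half. The concentration for full growth arrest is given as TGI.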

Regarding `C=CC(=O)Nc1cccc(Nc2nc(Nc3ccc(N4CCN(C(C)=O)CC4)cc3OC)ncc2C(F)(F)F)c1`, the GI50 is 2.58 µM and 4.62 µM in the experiment on HCC-2998 colon; 3.15 µM and 2.29 µM in the experiment on OVCAR-5 ovarian; 8.12 µM and 5.61 µM in the experiment on K-562 leukemia; 4.47 µM and 3.17 µM with SF-539 CNS; 1.26 µM and 2.26 µM in the experiment with HL-60(TB) leukemia; 5.12 µM and 1.71 µM with OVCAR-4 ovarian. Further, the GI50 was 2 µM and 0.802 µM in the experiment with A498 renal; 0.211 µM and 0.291 µM in the experiment with SK-OV-3 ovarian; 2.04 µM and 2.23 µM with SK-MEL-2 melanoma; 0.787 µM and 0.525 µM in the experiment on HOP-92 NSCLC. In addition, the TGI is > 10 µM and 22.4 µM with HCC-2998 colon; greater than 100 µM with OVCAR-5 ovarian; greater than 100 µM in the experiment with K-562 leukemia; > 10 µM and 14.2 µM in the experiment on SF-539 CNS; greater than 34 µM with HL-60(TB) leukemia; greater than 65.9 µM in the experiment with OVCAR-4 ovarian. Moreover, the TGI in the experiment on A498 renal was 6.01 µM and 2.94 µM; in the experiment on SK-OV-3 ovarian, 2.8 µM and 5.29 µM; in the experiment on SK-MEL-2 melanoma, 6.83 µM and 10.8 µM; in the experiment with HOP-92 NSCLC, 4.88 µM and 4.21 µM.
In the case of `CSc1nc(-c2cccc(NC(=O)CCl)c2)c(C#N)c(=O)n1C`, the GI50 in the experiment on HCC-2998 colon is 1.96 µM; in the experiment on OVCAR-5 ovarian, 1.83 µM; in the experiment on K-562 leukemia, 1.28 µM; with SF-539 CNS, 1.47 µM; in the experiment on HL-60(TB) leukemia, 1.81 µM; in the experiment on OVCAR-4 ovarian, 1.43 µM. Also, the GI50 in the experiment with A498 renal is 5.51 µM; in the experiment with SK-OV-3 ovarian, 12.5 µM; in the experiment with SK-MEL-2 melanoma it was 2.17 µM; in the experiment on HOP-92 NSCLC it was 1.75 µM. For the same compound, the TGI was 3.8 µM in the experiment with HCC-2998 colon; 3.38 µM in the experiment with OVCAR-5 ovarian; greater than 100 µM in the experiment on K-562 leukemia; 2.88 µM with SF-539 CNS; 4.88 µM with HL-60(TB) leukemia; 3.32 µM with OVCAR-4 ovarian. For the same compound, the TGI came out at 32.9 µM with A498 renal, 48.1 µM with SK-OV-3 ovarian, 7.08 µM in the experiment on SK-MEL-2 melanoma and 3.38 µM in the experiment with HOP-92 NSCLC.
`COc1ccc(CNC(=O)c2c(C)n([O-])c3cc(F)c(F)cc3[n+]2=O)cc1`: the GI50 with HCC-2998 colon is 2.07 µM; with OVCAR-5 ovarian, 16 µM; in the experiment with K-562 leukemia, 1.93 µM; with SF-539 CNS it was 16.5 µM; in the experiment on HL-60(TB) leukemia, 2.64 µM; in the experiment with OVCAR-4 ovarian, 13.7 µM. The GI50 in the experiment with A498 renal was 16.1 µM; in the experiment on SK-OV-3 ovarian, 14.8 µM; in the experiment on SK-MEL-2 melanoma it was 15.4 µM; in the experiment on HOP-92 NSCLC, 14.9 µM. For the same compound, the TGI amounted to 5.77 µM with HCC-2998 colon; 29.4 µM with OVCAR-5 ovarian; 4.05 µM in the experiment with K-562 leukemia; 30.6 µM in the experiment with SF-539 CNS; 12.2 µM in the experiment with HL-60(TB) leukemia; 26.9 µM in the experiment on OVCAR-4 ovarian. Also, the TGI came out at 29.6 µM in the experiment on A498 renal, 27.9 µM in the experiment with SK-OV-3 ovarian, 29.5 µM with SK-MEL-2 melanoma and 32 µM with HOP-92 NSCLC.
Take `COc1ccc(-c2cc3c(N)ncnc3o2)cc1`: the GI50 with HCC-2998 colon, in the experiment on OVCAR-5 ovarian, with K-562 leukemia, in the experiment on SF-539 CNS, in the experiment with HL-60(TB) leukemia and in the experiment on OVCAR-4 ovarian was greater than 25 µM in each case. Moreover, the GI50 in the experiment with A498 renal was 8.14 µM; in the experiment on SK-OV-3 ovarian, greater than 25 µM; with SK-MEL-2 melanoma, greater than 25 µM; in the experiment on HOP-92 NSCLC, 17.1 µM. For the same compound, the TGI in the experiment on HCC-2998 colon, with OVCAR-5 ovarian, with K-562 leukemia, with SF-539 CNS, with HL-60(TB) leukemia and in the experiment with OVCAR-4 ovarian was greater than 25 µM in each case. Moreover, the TGI in the experiment with A498 renal, in the experiment with SK-OV-3 ovarian, with SK-MEL-2 melanoma and in the experiment with HOP-92 NSCLC was greater than 25 µM throughout.
Take `COc1cc2c3c(n(CCCN4CCN(CCO)CC4)c(=O)c2cc1OC)-c1cc2c(cc1C3=O)OCO2`: the GI50 in the experiment with HCC-2998 colon was 6.25 µM; with OVCAR-5 ovarian it was 19.9 µM; in the experiment with K-562 leukemia, 5.95 µM; in the experiment on SF-539 CNS, 1.46 µM; in the experiment with HL-60(TB) leukemia, 6.35 µM; with OVCAR-4 ovarian, 15.9 µM. Moreover, the GI50 was 18.2 µM with A498 renal, 21.1 µM in the experiment with SK-OV-3 ovarian, greater than 100 µM with SK-MEL-2 melanoma and greater than 21.2 µM with HOP-92 NSCLC. The TGI was 20.4 µM in the experiment on HCC-2998 colon; 40.9 µM in the experiment with OVCAR-5 ovarian; 29.4 µM with K-562 leukemia; 6.3 µM in the experiment on SF-539 CNS; greater than 41.7 µM in the experiment with HL-60(TB) leukemia; greater than 50.7 µM with OVCAR-4 ovarian. The TGI in the experiment on A498 renal is 81.6 µM; in the experiment with SK-OV-3 ovarian, greater than 78.9 µM; in the experiment with SK-MEL-2 melanoma, greater than 100 µM; in the experiment with HOP-92 NSCLC it was greater than 100 µM.
As to `CCC(=O)OCN1C(=O)C=CC1=O`, the TGI with HCC-2998 colon is 34.1 µM and 33.6 µM; in the experiment with OVCAR-5 ovarian, 32.9 µM and 33.1 µM; in the experiment with SF-539 CNS, 36.8 µM and 33.8 µM; with HL-60(TB) leukemia, 70.4 µM and 8.36 µM; in the experiment with OVCAR-4 ovarian, 39.5 µM and 34.5 µM; in the experiment with A498 renal, greater than 100 µM. Besides, the TGI was greater than 100 µM with SK-OV-3 ovarian; 29.3 µM in the experiment on SK-MEL-2 melanoma; 16.7 µM and 31.6 µM in the experiment with HOP-92 NSCLC. Further, the GI50 is 4.19 µM in the experiment with K-562 leukemia; 20.5 µM in the experiment on SF-539 CNS; 17.3 µM with HL-60(TB) leukemia; 21.2 µM with OVCAR-4 ovarian; greater than 100 µM with A498 renal; greater than 100 µM in the experiment on SK-OV-3 ovarian. Besides, the GI50 in the experiment on HOP-92 NSCLC was 2.65 µM.
For the compound `CCCC(CCC)C(=O)O`, the GI50 in the experiment on HCC-2998 colon was greater than 100 µM; with OVCAR-5 ovarian, greater than 20000 µM; with K-562 leukemia it was greater than 100 µM; in the experiment with SF-539 CNS it was greater than 100 µM; in the experiment on HL-60(TB) leukemia it was greater than 100 µM; in the experiment with OVCAR-4 ovarian, greater than 100 µM. Moreover, the GI50 with A498 renal was greater than 100 µM; in the experiment on SK-OV-3 ovarian, greater than 20000 µM; in the experiment on SK-MEL-2 melanoma it was greater than 100 µM; in the experiment on HOP-92 NSCLC, greater than 100 µM. Also, the TGI is > 100 µM and 16700 µM in the experiment with HCC-2998 colon; greater than 20000 µM with OVCAR-5 ovarian; greater than 20000 µM in the experiment on K-562 leukemia; greater than 20000 µM with SF-539 CNS; greater than 20000 µM in the experiment on HL-60(TB) leukemia; greater than 20000 µM in the experiment on OVCAR-4 ovarian. The TGI in the experiment on A498 renal was > 100 µM and 4830 µM; in the experiment on SK-OV-3 ovarian it was greater than 20000 µM; in the experiment on SK-MEL-2 melanoma it was greater than 20000 µM; in the experiment with HOP-92 NSCLC, greater than 20000 µM.
